ChEMBL document CHEMBL3860097, “Synthesis and biological evaluation of C-ring truncated deguelin derivatives as heat shock protein 90 (HSP90) inhibitors” (2016)
Activity calls are given as the source filed them. The rule behind the calls is not given here.

Key:
[1] = target: T1, Heat shock protein HSP90 (Homo sapiens) (UniProt P07900+P08238); experiment: Inhibition of HSP90 in human H1299 cells assessed as suppression of HIF-1alpha at 100 nM preincubated for 72 hrs followed by incubation under hypoxic condition for 12 hrs by Western blot method relative to control; type: cell-based
[2] = target: T1, Heat shock protein HSP90 (Homo sapiens); experiment: Inhibition of HSP90 in human H1299 cells assessed as suppression of HIF-1alpha at 10 nM preincubated for 72 hrs followed by incubation under hypoxic condition for 12 hrs by Western blot method relative to control; type: cell-based
Homo sapiens [3] = species on record: Homo sapiens; experiment: Antiangiogenic activity in HRMEC assessed as inhibition of VEGF-induced cell proliferation under hypoxic condition by measuring [3H]-thymidine incorporation at 100 nM preincubated for 24 hrs followed by [3H]-thymidine addition measured after 6 hrs by liquid scintillation counter; type: functional
Homo sapiens [4] = species on record: Homo sapiens; experiment: Antiangiogenic activity in HRMEC assessed as inhibition of VEGF-induced cell migration under hypoxic condition at 100 nM after 4 hrs by hematoxylin and eosin staining-based phase-contrast microscopy; type: functional
NCI-H1299 = experiment: Cytotoxicity against human H1299 cells assessed as decrease in cell viability by MTT assay; type: functional, cell-based
[5] = Cytotoxicity against human H1299 cells assessed as decrease in cell viability at 10 uM by MTT assay relative to control; type: functional, NCI-H1299
[6] = target: T1, Heat shock protein HSP90 (Homo sapiens); experiment: Inhibition of HSP90 in human H1299 cells assessed as suppression of HIF-1alpha preincubated for 72 hrs followed by incubation under hypoxic condition for 12 hrs by Western blot method; type: cell-based

Row | inhibition [1] [%] | Structure (SMILES) | further results
1 | 117 | COc1cc2cc(/C(=N\O)c3ccc4c(c3OC)C=CC(C)(C)O4)oc2cc1OC | 
2 | 85.3 | COc1ccc(CC(=O)c2ccc3c(c2OC)C=CC(C)(C)O3)cc1OC | 
3 | 115 | COc1cc2nccc(C(OC(=O)C3CC3)c3ccc4ncccc4c3)c2cc1OC (centres undefined) | 
4 | 92.4 | COc1cc2occ(C(=O)c3ccc4c(c3OC)C=CC(C)(C)O4)c2cc1OC | inhibition [2]: 105%
5 | 72.9 | COc1cc2nccc(C(NC(C)=O)c3ccc4c(c3OC)C=CC(C)(C)O4)c2cc1OC (centres undefined) | 
6 | 72.2 | COc1cc2cc(C(OC(C)=O)c3ccc4c(c3OC)C=CC(C)(C)O4)oc2cc1OC (centres undefined) | 
7 | 80.5 | COc1cc2nccc(C(OC(=O)C3CC3)c3ccc4ncccc4c3OC)c2cc1OC (centres undefined) | 
8 | 71.5 | COc1cc2nccc(C(O)c3ccc4c(c3OC)C=CC(C)(C)O4)c2cc1OC (centres undefined) | 
9 | 90 | CCCC(=O)OC(c1ccc2c(c1OC)C=CC(C)(C)O2)c1ccnc2cc(OC)c(OC)cc12 (centres undefined) | 
10 | 85.5 | COc1cc2nccc(C(NC(=O)C3CC3)c3ccc4c(c3OC)C=CC(C)(C)O4)c2cc1OC (centres undefined) | 
11 | 70.5 | COc1cc2nccc(C(=O)c3ccc4c(c3OC)C=CC(C)(C)O4)c2cc1OC | 
12 | 70.6 | COc1cc2cc(/C(=N/O)c3ccc4c(c3OC)C=CC(C)(C)O4)oc2cc1OC | 
13 | 102 | COc1cc2nccc(C(O)c3ccc4c(ccn4C)c3)c2cc1OC (centres undefined) | 
14 | 88.6 | COc1cc2ncnc(C(OC(C)=O)c3ccc4c(c3OC)C=CC(C)(C)O4)c2cc1OC (centres undefined) | 
15 | 71 | COc1cc2ccc(C(OC(=O)C3CC3)c3ccc4c(c3OC)C=CC(C)(C)O4)nc2cc1OC (centres undefined) | 
16 | 64 | COc1cc2c(cc1OC)[C@@H]1C(=O)c3ccc4c(c3O[C@@H]1CO2)C=CC(C)(C)O4 | inhibition (Homo sapiens [3]): Active; inhibition (Homo sapiens [4]): Active; inhibition [2]: 94%
17 | 102 | COc1cc2cc(C(O)c3ccc4ncccc4c3)oc2cc1OC (centres undefined) | 
18 | 81 | COc1cc2occ(C(OC(C)=O)c3ccc4c(c3OC)C=CC(C)(C)O4)c2cc1OC (centres undefined) | 
19 | 53.9 | COc1cc2nccc(C(OC(=O)C3CC3)c3ccc4c(c3OC)C=CC(C)(C)O4)c2cc1OC (centres undefined) | inhibition (Homo sapiens [3]): Active; Activity (NCI-H1299): Dose-dependent effect; inhibition (Homo sapiens [4]): Active; Activity [5]: <50%; inhibition [6]: Dose-dependent effect; inhibition [2]: 63.3%
20 | 81.2 | COc1cc2nccc(C(OC(N)=O)c3ccc4c(c3OC)C=CC(C)(C)O4)c2cc1OC (centres undefined) | 
21 | 82.7 | COc1cc2nccc(C(OC(C)=O)c3ccc4ncccc4c3)c2cc1OC (centres undefined) | 

Row | inhibition [1] [%] | Structure (SMILES) | further results
22 | 115 | COc1cc2cc(C(OC(=O)C3CC3)c3ccc4ncccc4c3)oc2cc1OC (centres undefined) | 
23 | 62.2 | COc1cc2nccc(C(OC(C)=O)c3ccc4c(c3OC)C=CC(C)(C)O4)c2cc1OC (centres undefined) | inhibition [2]: 95.4%
24 | 68.9 | COc1cc2nccc(C(N)c3ccc4c(c3OC)C=CC(C)(C)O4)c2cc1OC (centres undefined) | 
25 | 54.2 | CO/N=C(/c1ccc2c(c1OC)C=CC(C)(C)O2)c1ccnc2cc(OC)c(OC)cc12 | 
26 |  | CC(C)c1cc(-c2n[nH]c(=O)n2-c2ccc3c(ccn3C)c2)c(O)cc1O | inhibition (Homo sapiens [3]): Active; inhibition (Homo sapiens [4]): Active
27 | 67.4 | COc1cc2nccc(C(OC(C)=O)c3ccc4ncccc4c3OC)c2cc1OC (centres undefined) | 
28 | 86 | COc1cc2nccc(C(=O)c3ccc4c(ccn4C)c3)c2cc1OC | 
29 | 40.6 | COc1cc2cc(C(=O)c3ccc4ncccc4c3)oc2cc1OC | 
30 | 64 | COc1cc2nccc(/C(=N\O)c3ccc4c(c3OC)C=CC(C)(C)O4)c2cc1OC | 
31 | 56 | COc1cc2cc(C(OC(C)=O)c3ccc4ncccc4c3)oc2cc1OC (centres undefined) | inhibition [2]: 88%
32 | 96.4 | CCC(=O)OC(c1ccc2c(c1OC)C=CC(C)(C)O2)c1ccnc2cc(OC)c(OC)cc12 (centres undefined) | 
33 | 66.5 | CO/N=C(/c1cc2cc(OC)c(OC)cc2o1)c1ccc2c(c1OC)C=CC(C)(C)O2 | inhibition [2]: 76.9%
34 | 97.2 | COc1cc2nccc(C(OC(C)=O)c3ccc4c(ccn4C)c3)c2cc1OC (centres undefined) | 
35 | 73 | COc1cc2ccc(C(OC(C)=O)c3ccc4c(c3OC)C=CC(C)(C)O4)nc2cc1OC (centres undefined) | 
36 | 71.9 | COc1cc2ncnc(C(OC(=O)C3CC3)c3ccc4c(c3OC)C=CC(C)(C)O4)c2cc1OC (centres undefined) | 
37 | 85 | COc1cc2nccc(C(OC(=O)C3CC3)c3ccc4c(ccn4C)c3)c2cc1OC (centres undefined) | 
38 | 65.6 | CO/N=C(\c1cc2cc(OC)c(OC)cc2o1)c1ccc2c(c1OC)C=CC(C)(C)O2 | 
39 | 54.1 | COc1cc2cc(C(=O)c3ccc4c(c3OC)C=CC(C)(C)O4)oc2cc1OC | 
40 | 86 | COc1cc2ccc(C(O)c3ccc4c(c3OC)C=CC(C)(C)O4)nc2cc1OC (centres undefined) | 
41 | 76 | COc1cc2ccc(C(=O)c3ccc4c(c3OC)C=CC(C)(C)O4)nc2cc1OC | 
42 | 59.3 | COc1cc2nccc(C(SC(C)=O)c3ccc4c(c3OC)C=CC(C)(C)O4)c2cc1OC (centres undefined) | Activity (NCI-H1299): Dose-dependent effect; Activity [5]: <50%; inhibition [2]: 74%
